In PMC8305076, “Comprehensive Evaluation of Biological Effects of Pentathiepins on Various Human Cancer Cell Lines and Insights into Their Mode of Action” (International Journal of Molecular Sciences, 2021):

Columns and labels:
A-427 = assay: crystal violet proliferation assay; format: cell-based; conditions: Homo sapiens, 96 h, normoxia, read-out: GI50 CV mean
Description: (§1) Distinct MTT cell viability and crystal violet cell proliferation assays were performed to assess the cytotoxicity of the compounds 1–6 on 14 human cancer cell lines. In the viability assay, cells with intact mitochondria and thus active dehydrogenases are competent to convert MTT to the corresponding insoluble formazan. The formazan can be photometrically detected after solubilization and allows for indirect conclusions about the viability of the cells as an IC50 value. In the crystal violet assay, cells are stained by the binding of the dye to the chromatin, thus allowing for a quantification of biomass that remains adherent after a treatment in comparison with a control after a specific time. Potency is defined as the growth inhibitory concentration 50% (GI50).
(§2) The antiproliferative effect of the pentathiepins on human cancer cell lines was analyzed by crystal violet assay based on the protocol of a previous publication. […] After dissolving in ethanol, the optical density was measured. Here, 1000 cells (250 for LCLC-103H) in 0.1 mL of medium were seeded per well of a 96 well plate and incubated at standard conditions for 24 h prior to treatment to allow for adhesion of the cells. A serial dilution of the test compounds was prepared in medium, covering final concentrations from 10.0 to 0.04 µM and 0.1 mL of the working solution added to each well in triplicate. Additionally, samples for each cell line were seeded and directly fixed after 24 h to measure the cell density at the beginning of treatment (t0). Fixation was performed by replacing medium with 0.1 mL of a solution containing 1% glutaraldehyde in Dulbecco’s buffer (0.2 g/L KCl, 0.1 g/L MgSO4·7 H2O, 1.55 g/L Na2HPO4·7 H2O, 0.2 g/L KH2HPO4, and 8 g/L NaCl in water) for 20 min. Plates were stored in 0.1 mL of Dulbecco’s buffer until further processing. After 96 h of treatment, the same fixation process was applied to the plates containing cells and test compounds. To stain the cells, 0.1 mL of an aqueous solution of crystal violet (0.02%) was added per well for 20 min, then discarded and the plates afterwards rinsed in clear water for 30 min. The dye was extracted in 50 µL of ethanol per well during 2 h of shaking. The plates were read at λ = 570 nm using a SpectraMax 384plus (Molecular Devices, Sunnyvale, CA, USA), and the proliferation of the treatment conditions was calculated in relation to a solvent control sample after subtracting the background value of the T0-plates. The GI50 (half-maximal growth inhibitory concentration) was calculated via nonlinear regression followed by interpolation of the dose–response graphs in Prism 7 (GraphPad, San Diego, CA, USA).

A2780cis = assay: crystal violet proliferation assay; format: cell-based; conditions: Homo sapiens, 96 h, normoxia, read-out: GI50 CV mean
Description: as §1, §2

A2780 = assay: crystal violet proliferation assay; format: cell-based; conditions: Homo sapiens, 96 h, normoxia, read-out: GI50 CV mean
Description: as §1, §2

DanG = assay: crystal violet proliferation assay; format: cell-based; conditions: Homo sapiens, 96 h, normoxia, read-out: GI50 CV mean
Description: as §1, §2

HAP-1.KO.GPx1 = assay: crystal violet proliferation assay; format: cell-based; conditions: Homo sapiens, 96 h, normoxia, read-out: GI50 CV mean
Description: as §1, §2

HAP-1 = assay: crystal violet proliferation assay; format: cell-based; conditions: Homo sapiens, HAP1, 96 h, normoxia, read-out: GI50 CV mean
Description: as §1, §2

Kyse-70 = assay: crystal violet proliferation assay; format: cell-based; conditions: Homo sapiens, 96 h, normoxia, read-out: GI50 CV mean
Description: as §1, §2

LCLC-103H = assay: crystal violet proliferation assay; format: cell-based; conditions: Homo sapiens, 96 h, normoxia, read-out: GI50 CV mean
Description: as §1, §2

PATU-8902 = assay: crystal violet proliferation assay; format: cell-based; conditions: Homo sapiens, 96 h, normoxia, read-out: GI50 CV mean
Description: as §1, §2

RT-112 = assay: crystal violet proliferation assay; format: cell-based; conditions: Homo sapiens, 96 h, normoxia, read-out: GI50 CV mean
Description: as §1, §2

RT-4 = assay: crystal violet proliferation assay; format: cell-based; conditions: Homo sapiens, 96 h, normoxia, read-out: GI50 CV mean
Description: as §1, §2

Siso = assay: crystal violet proliferation assay; format: cell-based; conditions: Homo sapiens, 96 h, normoxia, read-out: GI50 CV mean
Description: as §1, §2

YAPC = assay: crystal violet proliferation assay; format: cell-based; conditions: Homo sapiens, 96 h, normoxia, read-out: GI50 CV mean
Description: as §1, §2

[1] = tested on: HAP-1, HAP-1.KO.GPx1, and Siso; assay: alkaline Comet assay (summary); format: cell-based, human; parameters: key: no impact (0); weak impact (+); strong impact (++); conditions: summary grade
Excerpt: Next, the potential of the pentathiepins 1–6 to damage nuclear DNA was investigated in the cell lines HAP-1, HAP-1.KO.GPx1, and Siso, with different expression levels of GPx1 and CAT (see Figure 7), by Comet Assay (Figure 12) with representative images in the Supplementary Materials (Figure S48).
With this assay, the intensity of DNA damage can be assessed on the level of a single cell, in case of the alkaline version detecting both single and double strand breaks as well as alkali-labile sites. The method presented here is an adaptation of the protocol published by Olive and Banath and based on the distinct electrophoretic mobility of damaged and intact genomic DNA. The latter has a low mobility; does thus not migrate in the electric field; and remains in a nucleoid shape after lysis, referred to as the comet head. In contrast, when strand breaks are created, free charged ends emerge and increase the electrophoretic mobility, prompting DNA segments to drift away from the comet head, thereby forming the so-called comet tail. As descriptor of still intact genomic DNA, the percentage of DNA in the comet head was selected. Per condition, 50,000 cells of either Siso, HAP-1, or HAP-1.KO.GPx1 were diluted in 1 mL of PBS and subsequently treated with either a 1% DMF aqueous solution as negative control, 20 µM of H2O2 as positive control, or 25 µM of pentathiepin for 15 min on ice to impair intracellular DNA repair mechanisms. Afterwards, 400 µL of the cell suspension was blended with 1.2 mL of a 1% low melting point agarose solution (40 °C) and smoothly distributed on agarose-precoated glass slides. Polymerization was finished after 3 min at RT, and the slides were horizontally submerged in alkaline lysis buffer (1.2 M NaCl, 0.1% N-lauryl-sarcosinate, 0.1 M Na-EDTA, 0.26 M NaOH) before storing them at 4 °C overnight. The slides were then rinsed three times in rinse/electrophoresis buffer (0.002 M Na-EDTA, 0.03 M NaOH) before electrophoretic separation was performed for 25 min at 0.6 V/cm. A neutralization step by adding distilled water was followed by staining the slides with 250 µL of an aqueous 10 µg/mL PI solution for 20 min. For visualization and image capturing, a DMi8 fluorescent microscope and LASX software (Leica Microsystems, Wetzlar, Germany) were used, and the comets scored with the help of CometScore2.0 (rexhoover.com). Per condition and replicate, at least 100 comets were analyzed to calculate a mean level of damage.

| SMILES | GI50 (A-427) [nM] | GI50 (A2780cis) [nM] | GI50 (A2780) [nM] | GI50 (DanG) [nM] | GI50 (HAP-1.KO.GPx1) [nM] | GI50 (HAP-1) [nM] | GI50 (Kyse-70) [nM] | GI50 (LCLC-103H) [nM] | GI50 (PATU-8902) [nM] | GI50 (RT-112) [nM] | GI50 (RT-4) [nM] | GI50 (Siso) [nM] | GI50 (YAPC) [nM] | Comet formation [1] |
| --- | --- | --- | --- | --- | --- | --- | --- | --- | --- | --- | --- | --- | --- | --- |
| CCOc1c2c(c3cnc4[nH]c(-c5ccc(OC)cc5)cc4n13)SSSSS2 [Compound 1, 11-Ethoxy-2-(4-methoxyphenyl)-3H-[1,2,3,4,5]pentathiepino[6′,7′:3,4]pyrrolo[1,2-a]pyrrolo[2,3-e]pyrazine] | 306 | 228 | 236 | 340 | 313 | 339 | 264 | 441 | 480 | 465 | 373 | 256 | 405 | + |
| CCOc1c2c(c3ccc(C(=O)N4CCCCC4)cn13)SSSSS2 [Compound 2, (6-Ethoxy-[1,2,3,4,5]pentathiepino[6,7-a]indolizin-9-yl)(piperidinyl)methanone] | 401 | 234 | 164 | 644 | 173 | 161 | 409 | 552 | 659 | 559 | 1520 | 423 | 628 | + |
| CCOc1c2c(c3ccc(C(=O)N4CCOCC4)cn13)SSSSS2 [Compound 3, (6-Ethoxy-[1,2,3,4,5]pentathiepino[6,7-a]indolizin-9-yl)(morpholino)methanone] | 142 | 88 | 55 | 382 | 68 | 64 | 142 | 128 | 257 | 246 | 193 | 166 | 350 | ++ |
| CCOc1c2c(c3ccc(C(=O)N(CC)CC)cn13)SSSSS2 [Compound 4, 6-Ethoxy-N,N’-diethyl-[1,2,3,4,5]pentathiepino[6,7-a]indolizine-9-carboxamide] | 310 | 173 | 106 | 459 | 116 | 84 | 284 | 306 | 471 | 469 | 445 | 381 | 608 | ++ |
| CCOc1c2c(c3ccc(C(=O)N4CCN(C(=O)c5ccc(F)cc5)CC4)cn13)SSSSS2 [Compound 5, (6-Ethoxy-[1,2,3,4,5]pentathiepino[6,7-a]indolizin-9-yl)(4-(4-fluorobenzoyl)piperazinyl)methanone] | 320 | 142 | 92 | 398 | 144 | 120 | 181 | 232 | 340 | 384 | 358 | 369 | 411 | ++ |
| CCOc1c2c(c3ccc(C(=O)N4CCN(S(=O)(=O)c5ccc(C)cc5)CC4)cn13)SSSSS2 [Compound 6, (6-Ethoxy-[1,2,3,4,5]pentathiepino[6,7-a]indolizin-9-yl)(4-tosylpiperazinyl)methanone] | 352 | 512 | 538 | 711 | 524 | 507 | 481 | 646 | 952 | 1100 | 835 | 597 | 1170 | + |
